Measured values taken from PubChem BioAssay AID248 (DTP/NCI, 2004).
“And” between values parts separate entries of the source, which are not always exact repeats. Identical values can stand only once. Inconclusive results and toxic doses are left out. Rule as the data show it: active = T/C of 150% or more; inactive = T/C below 125%.

Tested on: L1210 leukemia ip in BDF1 mice, survival T/C
Test: NCI In Vivo Anticancer Drug Screen. Data for tumor model L1210 Leukemia (intraperitoneal) in B6D2F1 (BDF1) mice
Conditions: endpoint: mean survival time, higher = longer survival
In short: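 Survival endpoint. Drug-treated group vs vehicle group, expressed as T divided by C. Tumor passaged by transplantation.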

[1] = dose: 100.0 mg/kg/injection, schedule: Q01DX001 (ip), vehicle: saline
[2] = dose: 200.0 mg/kg/injection, schedule: Q01DX001 (ip), vehicle: saline
[3] = dose: 400.0 mg/kg/injection, schedule: Q01DX001 (ip), vehicle: saline
[4] = dose: 100.0 mg/kg/injection, schedule: Q04DX003 (ip), vehicle: Klucel (hydroxypropylcellulose) (HPC)
[5] = dose: 200.0 mg/kg/injection, schedule: Q04DX003 (ip), vehicle: Klucel (hydroxypropylcellulose) (HPC)
[6] = dose: 400.0 mg/kg/injection, schedule: Q04DX003 (ip), vehicle: Klucel (hydroxypropylcellulose) (HPC)
[7] = dose: 25.0 mg/kg/injection, schedule: Q01DX009 (ip), vehicle: Klucel (hydroxypropylcellulose) (HPC)
[8] = dose: 50.0 mg/kg/injection, schedule: Q01DX009 (ip), vehicle: Klucel (hydroxypropylcellulose) (HPC)
[9] = dose: 100.0 mg/kg/injection, schedule: Q01DX009 (ip), vehicle: Klucel (hydroxypropylcellulose) (HPC)
[10] = dose: 12.5 mg/kg/injection, schedule: Q01DX009 (ip), vehicle: saline
[11] = dose: 25.0 mg/kg/injection, schedule: Q01DX009 (ip), vehicle: saline
[12] = dose: 50.0 mg/kg/injection, schedule: Q01DX009 (ip), vehicle: saline
[13] = dose: 50.0 mg/kg/injection, schedule: Q04DX003 (ip), vehicle: saline
[14] = dose: 100.0 mg/kg/injection, schedule: Q01DX001 (ip), vehicle: saline with Tween-80
[15] = dose: 100.0 mg/kg/injection, schedule: Q01DX009 (ip), vehicle: saline with Tween-80
[16] = dose: 200.0 mg/kg/injection, schedule: Q01DX009 (ip), vehicle: saline with Tween-80
[17] = dose: 50.0 mg/kg/injection, schedule: Q01DX009 (ip), vehicle: saline with Tween-80
[18] = dose: 12.5 mg/kg/injection, schedule: Q04DX003 (ip), vehicle: saline
[19] = dose: 25.0 mg/kg/injection, schedule: Q04DX003 (ip), vehicle: saline
[20] = dose: 100.0 mg/kg/injection, schedule: Q04DX003 (ip), vehicle: saline

Measured: T/C

Nc1c(Cl)ncnc1NC1CC(CO)CC1O (stereo not given)
inactive: dose: 100.0 mg/kg/injection, schedule: Q01DX001 (ip), vehicle: Klucel (hydroxypropylcellulose) (HPC) 96 % of control | dose: 200.0 mg/kg/injection, schedule: Q01DX001 (ip), vehicle: Klucel (hydroxypropylcellulose) (HPC) 93 % of control | dose: 400.0 mg/kg/injection, schedule: Q01DX001 (ip), vehicle: Klucel (hydroxypropylcellulose) (HPC) 96 % of control

C=C1CC(CCCCCC2CC(=C)C(=O)O2)OC1=O (stereo not given)
inactive: dose: 12.5 mg/kg/injection, schedule: Q04DX002 (ip), vehicle: saline 94 % of control | dose: 25.0 mg/kg/injection, schedule: Q04DX002 (ip), vehicle: saline 94 % of control | dose: 50.0 mg/kg/injection, schedule: Q04DX002 (ip), vehicle: saline 102 % of control

CC/C(=N/NC(N)=O)c1ccccc1Cl
inactive: [1] 97 % of control | [2] 96 % of control | [3] 106 % of control

Cc1nc(N)nc(N)c1Cc1ccc(N=[N+]=[N-])cc1
inactive: dose: 25.0 mg/kg/injection, schedule: Q04DX002 (ip), vehicle: saline with Tween-80 98 % of control | dose: 50.0 mg/kg/injection, schedule: Q04DX002 (ip), vehicle: saline with Tween-80 113 % of control

CS(=O)(=O)OCCN(CCOS(C)(=O)=O)c1ccc(C=Nc2ccc3ccccc3c2)c(Cl)c1
inactive: [4] 103 % of control and 107 % of control | [5] 113 % of control | [6] 118 % of control

O=C(CC(O)(c1ccccc1)c1ccccc1)Nc1ccccn1
inactive: dose: 100.0 mg/kg/injection, schedule: Q01DX001 (ip), vehicle: other 89 % of control | dose: 200.0 mg/kg/injection, schedule: Q01DX001 (ip), vehicle: other 89 % of control

COc1ccc2c3c(ccc2c1)C(=O)/C(=C\O)CC3
inactive: [7] 92 % of control | dose: 25.0 mg/kg/injection, schedule: Q04DX003 (ip), vehicle: Klucel (hydroxypropylcellulose) (HPC) 100 % of control | [8] 108 % of control | dose: 50.0 mg/kg/injection, schedule: Q04DX003 (ip), vehicle: Klucel (hydroxypropylcellulose) (HPC) 101 % of control | [9] 88 % of control | [4] 100 % of control and 103 % of control | [5] 103 % of control

Cc1ccc(N2CCNCC2)cc1Cl
inactive: [10] 100 % of control | [11] 91 % of control | [12] 102 % of control | [13] 102 % of control

CCOC(=S)c1cccc(S(=O)(=O)Nc2ccc(OCC)cc2)c1
inactive: [14] 105 % of control | dose: 200.0 mg/kg/injection, schedule: Q01DX001 (ip), vehicle: saline with Tween-80 105 % of control | dose: 400.0 mg/kg/injection, schedule: Q01DX001 (ip), vehicle: saline with Tween-80 108 % of control

CCOc1ccc(NC(=S)NC(=O)c2ccco2)cc1
inactive: [15] 93 % of control | [4] 104 % of control | [16] 93 % of control | [5] 94 % of control | [6] 100 % of control

CCN(/C=C1/SC(=S)NC1=O)CC
inactive: [17] 109 % of control | [15] 98 % of control | [16] 119 % of control

CC[N+](CC)(CCOC(=O)C1C2CC3OC(=O)C1C3C2)Cc1ccccc1 (stereo not given)
inactive: [18] 89 % of control | [19] 89 % of control | [13] 106 % of control | [20] 93 % of control

CCOc1ccc(C2NC(=O)c3ccccc3N2)cc1 (stereo not given)
inactive: [9] 104 % of control | [4] 91 % of control | dose: 200.0 mg/kg/injection, schedule: Q01DX009 (ip), vehicle: Klucel (hydroxypropylcellulose) (HPC) 97 % of control | [5] 98 % of control | dose: 400.0 mg/kg/injection, schedule: Q01DX009 (ip), vehicle: Klucel (hydroxypropylcellulose) (HPC) 97 % of control | [6] 98 % of control

COc1cccc2c1C(=O)c1c(O)c3c(c(O)c1C2=O)CC(O)(C(C)=O)CC3OC1CC2NC(=O)OC2C(C)O1 (stereo not given)
inactive: [14] 114 % of control

O=C(NCCCO)C1C(c2ccccc2)C1c1ccccc1 (stereo not given)
inactive: dose: 100.0 mg/kg/injection, schedule: Q04DX002 (ip), vehicle: saline with Tween-80 108 % of control | dose: 200.0 mg/kg/injection, schedule: Q04DX002 (ip), vehicle: saline with Tween-80 102 % of control | dose: 400.0 mg/kg/injection, schedule: Q04DX002 (ip), vehicle: saline with Tween-80 102 % of control

CS(=O)(=O)OCCN(CCOS(C)(=O)=O)c1ccc(C=Nc2ccc(-c3csc(-c4ccc(Br)cc4)n3)cc2)cc1
inactive: [7] 124 % of control | [8] 114 % of control

OCCOc1cc(Cl)c(Cl)cc1Cl
inactive: dose: 25.0 mg/kg/injection, schedule: Q04DX003 (ip), vehicle: carboxymethylcellulose (CMC) 95 % of control | dose: 50.0 mg/kg/injection, schedule: Q01DX009 (ip), vehicle: carboxymethylcellulose (CMC) 93 % of control and 102 % of control | dose: 50.0 mg/kg/injection, schedule: Q04DX003 (ip), vehicle: carboxymethylcellulose (CMC) 101 % of control | dose: 100.0 mg/kg/injection, schedule: Q01DX009 (ip), vehicle: carboxymethylcellulose (CMC) 101 % of control and 103 % of control | [15] 103 % of control | dose: 100.0 mg/kg/injection, schedule: Q04DX002 (ip), vehicle: carboxymethylcellulose (CMC) 102 % of control and 103 % of control | dose: 100.0 mg/kg/injection, schedule: Q04DX003 (ip), vehicle: carboxymethylcellulose (CMC) 95 % of control | [16] 87 % of control | dose: 200.0 mg/kg/injection, schedule: Q04DX002 (ip), vehicle: carboxymethylcellulose (CMC) 103 % of control

COc1ccc(NC(=O)C2C3C=CC(C3)C2C(=O)O)cc1 (stereo not given)
inactive: [17] 98 % of control | [15] 100 % of control | [16] 100 % of control

O=[N+]([O-])c1ccc(-c2ccccc2)cc1
inactive: [1] 102 % of control | [2] 105 % of control | [3] 105 % of control

CN(C)S(=O)(=O)c1ccc(NC(=O)OC(c2ccccc2)(c2ccccc2)c2ccccc2)cc1
inactive: [1] 96 % of control | [2] 92 % of control | [3] 96 % of control

CN(C)CCCN1CCC2(CCCC(C(F)(F)F)C2)CC1 (stereo not given)
inactive: dose: 50.0 mg/kg/injection, schedule: Q01DX001 (ip), vehicle: saline 104 % of control | [1] 101 % of control | [2] 104 % of control

CCOC1CC2c3ccccc3C1c1cccc[n+]12 (stereo not given)
inactive: [10] 100 % of control | [18] 100 % of control and 94 % of control | [11] 98 % of control | [19] 89 % of control and 101 % of control | [12] 94 % of control and 96 % of control | [13] 97 % of control and 101 % of control | dose: 75.0 mg/kg/injection, schedule: Q01DX009 (ip), vehicle: saline 88 % of control | [20] 98 % of control | dose: 200.0 mg/kg/injection, schedule: Q04DX003 (ip), vehicle: saline 107 % of control | dose: 400.0 mg/kg/injection, schedule: Q04DX003 (ip), vehicle: saline 86 % of control

Cc1cc(Cl)ccc1NC(=O)OCCSc1ccc(Cl)cc1
inactive: dose: 100.0 mg/kg/injection, schedule: Q01DX001 (ip), vehicle: gum acacia 94 % of control | dose: 100.0 mg/kg/injection, schedule: Q01DX009 (ip), vehicle: gum acacia 94 % of control and 95 % of control | dose: 100.0 mg/kg/injection, schedule: Q04DX003 (ip), vehicle: gum acacia 93 % of control and 94 % of control | dose: 200.0 mg/kg/injection, schedule: Q01DX001 (ip), vehicle: gum acacia 101 % of control | dose: 200.0 mg/kg/injection, schedule: Q01DX009 (ip), vehicle: gum acacia 97 % of control and 91 % of control | dose: 200.0 mg/kg/injection, schedule: Q04DX003 (ip), vehicle: gum acacia 97 % of control | dose: 400.0 mg/kg/injection, schedule: Q01DX001 (ip), vehicle: gum acacia 101 % of control | dose: 400.0 mg/kg/injection, schedule: Q01DX009 (ip), vehicle: gum acacia 93 % of control and 98 % of control | dose: 400.0 mg/kg/injection, schedule: Q04DX003 (ip), vehicle: gum acacia 95 % of control and 90 % of control

CN(CCC(=O)O)S(=O)(=O)c1ccccc1
inactive: [1] 103 % of control | [2] 97 % of control | [3] 89 % of control

CCCCCCCCCN(CCCCCCCCC)CC(O)c1ccc2cc(Br)c3ccccc3c2c1 (stereo not given)
inactive: dose: 222.0 mg/kg/injection, schedule: Q01DX Z (ip), vehicle: methylcellulose (MC) 98 % of control | dose: 333.0 mg/kg/injection, schedule: Q01DX Z (ip), vehicle: methylcellulose (MC) 95 % of control | dose: 500.0 mg/kg/injection, schedule: Q01DX Z (ip), vehicle: methylcellulose (MC) 92 % of control
